The test system of this data set is CCRIS mutagenicity, Ames/micronucleus/aberration tests. Description: CCRIS mutagenicity studies.
The mark [1] stands for this setting: Test System: AMES SALMONELLA TYPHIMURIUM, Strain/Indicator: TA97, Metabolic Activation: NONE, Method: PREINCUBATION
[2] abbreviates: Test System: AMES SALMONELLA TYPHIMURIUM, Strain/Indicator: TA98, Metabolic Activation: NONE, Method: PREINCUBATION
[3] abbreviates: Test System: AMES SALMONELLA TYPHIMURIUM, Strain/Indicator: TA100, Metabolic Activation: NONE, Method: PREINCUBATION
[4] abbreviates: Test System: AMES SALMONELLA TYPHIMURIUM, Strain/Indicator: TA98, Metabolic Activation: NONE, Method: STANDARD PLATE.
Where [5] appears, read: Test System: AMES SALMONELLA TYPHIMURIUM, Strain/Indicator: TA100, Metabolic Activation: NONE, Method: STANDARD PLATE.
Where [6] appears, read: Test System: AMES SALMONELLA TYPHIMURIUM, Strain/Indicator: TA98, Metabolic Activation: RAT, LIVER, S-9, AROCLOR 1254, Method: STANDARD PLATE.
Setting [7] is: Test System: AMES SALMONELLA TYPHIMURIUM, Strain/Indicator: TA100, Metabolic Activation: RAT, LIVER, S-9, AROCLOR 1254, Method: STANDARD PLATE.
[8] abbreviates: Test System: AMES SALMONELLA TYPHIMURIUM, Strain/Indicator: TA1538, Metabolic Activation: NONE, Method: STANDARD PLATE.
Setting [9] is: Test System: AMES SALMONELLA TYPHIMURIUM, Strain/Indicator: TA1538, Metabolic Activation: RAT, LIVER, S-9, AROCLOR 1254, Method: STANDARD PLATE.
Setting [10] is: Test System: AMES SALMONELLA TYPHIMURIUM, Strain/Indicator: TA100, Metabolic Activation: RAT, LIVER, S-9, AROCLOR 1254, Method: PREINCUBATION
The mark [11] stands for this setting: Test System: AMES SALMONELLA TYPHIMURIUM, Strain/Indicator: TA102, Metabolic Activation: NONE, Method: PREINCUBATION
Setting [12] is: Test System: AMES SALMONELLA TYPHIMURIUM, Strain/Indicator: TA102, Metabolic Activation: RAT, LIVER, S-9, AROCLOR 1254, Method: PREINCUBATION

Calls of active or inactive are those of the source. How the calls were made is not given here.

In the case of `CCOC(C)(C)C`, the mutagenic call (Test System: AMES SALMONELLA TYPHIMURIUM, Strain/Indicator: TA97, Metabolic Activation: HAMSTER, LIVER, S-9, AROCLOR 1254 (10 OR 30%), Method: PREINCUBATION) is “inactive; negative”; the mutagenic call under setting [1] is “inactive; negative”; the mutagenic call (Test System: AMES SALMONELLA TYPHIMURIUM, Strain/Indicator: TA97, Metabolic Activation: RAT, LIVER, S-9, AROCLOR 1254 (10 OR 30%), Method: PREINCUBATION) was “inactive; negative”; the mutagenic call (Test System: AMES SALMONELLA TYPHIMURIUM, Strain/Indicator: TA98, Metabolic Activation: HAMSTER, LIVER, S-9, AROCLOR 1254 (10 OR 30%), Method: PREINCUBATION) was “inactive; negative”; the mutagenic call under setting [2] is “inactive; negative”; the mutagenic call (Test System: AMES SALMONELLA TYPHIMURIUM, Strain/Indicator: TA98, Metabolic Activation: RAT, LIVER, S-9, AROCLOR 1254 (10 OR 30%), Method: PREINCUBATION) was “inactive; negative”. Besides, the mutagenic call was “inactive; negative” (Test System: AMES SALMONELLA TYPHIMURIUM, Strain/Indicator: TA100, Metabolic Activation: HAMSTER, LIVER, S-9, AROCLOR 1254 (10 OR 30%), Method: PREINCUBATION); “inactive; negative” under setting [3]; “inactive; negative” (Test System: AMES SALMONELLA TYPHIMURIUM, Strain/Indicator: TA100, Metabolic Activation: RAT, LIVER, S-9, AROCLOR 1254 (10 OR 30%), Method: PREINCUBATION); “inactive; negative” (Test System: AMES SALMONELLA TYPHIMURIUM, Strain/Indicator: TA1535, Metabolic Activation: HAMSTER, LIVER, S-9, AROCLOR 1254 (10 OR 30%), Method: PREINCUBATION); “inactive; negative” (Test System: AMES SALMONELLA TYPHIMURIUM, Strain/Indicator: TA1535, Metabolic Activation: NONE, Method: PREINCUBATION); “inactive; negative” (Test System: AMES SALMONELLA TYPHIMURIUM, Strain/Indicator: TA1535, Metabolic Activation: RAT, LIVER, S-9, AROCLOR 1254 (10 OR 30%), Method: PREINCUBATION).

`O=[N+]([O-])c1cc2[nH]c3ccc4ccccc4c3c2c2ccc(O)cc12`: the mutagenic call is, setting by setting: under setting [4], “inactive; negative”; (Test System: AMES SALMONELLA TYPHIMURIUM, Strain/Indicator: TA98, Metabolic Activation: RAT, LIVER, S-9, 3-METHYLCHOLANTHRENE, Method: STANDARD PLATE) “active; positive”; under setting [5], “active; positive”; (Test System: AMES SALMONELLA TYPHIMURIUM, Strain/Indicator: TA100, Metabolic Activation: RAT, LIVER, S-9, 3-METHYLCHOLANTHRENE, Method: STANDARD PLATE) “active; positive”.

`CCC1C(=O)O[C@@H]2CCN(C)C/C=C(/COC(=O)[C@](C)(O)[C@H](C)[C@@H]1O)C2=O` (stereo not given in full): the mutagenic call (Test System: UDS RAT HEPATOCYTES, Strain/Indicator: THY INCORP, Metabolic Activation: NONE, Method: AUTORADIOGRAPHY) is “active; positive”.

Take `CCCCOc1cc(N=Nc2ccc(N(CC)CC)cc2)ccc1N=Nc1c(S(=O)(=O)O)cc2ccc(N)cc2c1O`: the mutagenic call reads like this: under setting [4], “inactive; negative”; under setting [6], “active; positive”; under setting [5], “inactive; negative”; under setting [7], “inactive; negative”; under setting [8], “inactive; negative”; under setting [9], “active; positive”.

Consider `CCCOc1cc(N=Nc2ccc(N(CCO)CCO)cc2)ccc1N=Nc1c(S(=O)(=O)O)cc2ccc(N)cc2c1O`, for which the mutagenic call under setting [4] is “inactive; negative”; the mutagenic call under setting [6] was “active; positive”; the mutagenic call under setting [5] was “inactive; negative”; the mutagenic call under setting [7] is “inactive; negative”; the mutagenic call under setting [8] is “inactive; negative”; the mutagenic call under setting [9] was “active; positive”.

Consider `Cc1cccs1`, for which the mutagenic call runs as follows: under setting [2], “inactive; negative”; (Test System: AMES SALMONELLA TYPHIMURIUM, Strain/Indicator: TA98, Metabolic Activation: RAT, LIVER, S-9, AROCLOR 1254, Method: PREINCUBATION) “inactive; negative”; under setting [3], “inactive; negative”; under setting [10], “inactive; negative”; under setting [11], “inactive; negative”; under setting [12], “inactive; negative”.

As to `O.O.O.O=C([O-])COc1ccccc1.O=C([O-])COc1ccccc1.[Cu+2]`, the mutagenic call reads like this: under setting [1], “inactive; negative”; (Test System: AMES SALMONELLA TYPHIMURIUM, Strain/Indicator: TA97, Metabolic Activation: RAT, LIVER, S-9, AROCLOR 1254, Method: PREINCUBATION) “inactive; negative”; under setting [3], “inactive; negative”; under setting [10], “inactive; negative”; under setting [11], “inactive; negative”; under setting [12], “inactive; negative”.

Turning to `N#CCc1cn(N=O)c2ccccc12`, the mutagenic call (Test System: AMES SALMONELLA TYPHIMURIUM, Strain/Indicator: TA100, Metabolic Activation: NONE) was “active; positive” and the mutagenic call (Test System: AMES SALMONELLA TYPHIMURIUM, Strain/Indicator: TA100, Metabolic Activation: S-9) is “active; positive”.

For the molecule `O=c1[nH][nH]c2ccccc12`, the mutagenic call is “inactive; negative” (Test System: AMES SALMONELLA TYPHIMURIUM, Strain/Indicator: TA98, Metabolic Activation: HAMSTER, LIVER, S-9, AROCLOR 1254, Method: STANDARD PLATE); “inactive; negative” under setting [4]; “inactive; negative” under setting [6]; “inactive; negative” (Test System: AMES SALMONELLA TYPHIMURIUM, Strain/Indicator: TA100, Metabolic Activation: HAMSTER, LIVER, S-9, AROCLOR 1254, Method: STANDARD PLATE); “inactive; negative” under setting [5]; “inactive; negative” under setting [7]. Also, the mutagenic call by setting is: (Test System: AMES SALMONELLA TYPHIMURIUM, Strain/Indicator: TA1535, Metabolic Activation: HAMSTER, LIVER, S-9, AROCLOR 1254, Method: STANDARD PLATE) “inactive; negative”; (Test System: AMES SALMONELLA TYPHIMURIUM, Strain/Indicator: TA1535, Metabolic Activation: NONE, Method: STANDARD PLATE) “inactive; negative”; (Test System: AMES SALMONELLA TYPHIMURIUM, Strain/Indicator: TA1535, Metabolic Activation: RAT, LIVER, S-9, AROCLOR 1254, Method: STANDARD PLATE) “inactive; negative”; (Test System: AMES SALMONELLA TYPHIMURIUM, Strain/Indicator: TA1537, Metabolic Activation: HAMSTER, LIVER, S-9, AROCLOR 1254, Method: STANDARD PLATE) “inactive; negative”; (Test System: AMES SALMONELLA TYPHIMURIUM, Strain/Indicator: TA1537, Metabolic Activation: NONE, Method: STANDARD PLATE) “inactive; negative”; (Test System: AMES SALMONELLA TYPHIMURIUM, Strain/Indicator: TA1537, Metabolic Activation: RAT, LIVER, S-9, AROCLOR 1254, Method: STANDARD PLATE) “inactive; negative”. Also, the mutagenic call (Test System: AMES SALMONELLA TYPHIMURIUM, Strain/Indicator: TA1538, Metabolic Activation: HAMSTER, LIVER, S-9, AROCLOR 1254, Method: STANDARD PLATE) is “inactive; negative”; the mutagenic call under setting [8] was “inactive; negative”; the mutagenic call under setting [9] was “inactive; negative”; the mutagenic call (Test System: MOUSE LYMPHOMA, Strain/Indicator: L5178Y (TK+/TK-), Metabolic Activation: NONE, Method: SUSPENSION/PLATE) is “active; positive. reevaluation of results: positive”; the mutagenic call (Test System: MOUSE LYMPHOMA, Strain/Indicator: L5178Y (TK+/TK-), Metabolic Activation: RAT, LIVER, S-9, AROCLOR 1254, Method: SUSPENSION/PLATE) was “inactive; negative. reevaluation of results: negative”.

The record behind these values is PubChem BioAssay AID1259407 (Chemical Carcinogenesis Research Information System (CCRIS), 2018).
